Read-outs that look alike come from different tables or passages of the source.
Experiments:
[1] = system: C57BL/KsJ db/db mice; experiment: Consumption of water and food by db/db mice; conditions: male db/db mice, control = 100
Description: The C57BL/KsJ db/db mice used in the experiments reported here below were supplied by Jackson Lab (via Ch. River).

[2] = system: C57BL/KsJ db/db mice; experiment: Serum glucose levels in db/db mice after 4 days of subcutaneous treatment; conditions: male db/db mice, postabsorption conditions, 8 hours after last treatment, control = 100
[3] = system: rat; conditions: oral administration; cited from earlier work
[4] = system: ob/ob mouse; experiment: Reduction in hyperglycaemia in the ob/ob mouse (laboratory experiments); conditions: oral dose of 600 mg/kg/day
[5] = system: diabetic patients; conditions: cited from earlier work
[6] = system: KKAy mouse; conditions: oral dose of 900 mg/kg/day; cited from earlier work
[7] = 25 mg/kg s.c. twice daily for 4 days
[8] = 100 mg/kg s.c. twice daily for 4 days

Row | SMILES | Food % (consumption, variation vs Control) [1, 7] | Water % (consumption, variation vs Control) [1, 7] | Glucose % (variation vs Control) [2, 7] | Glucose % (variation vs Control) [2, 8] | LD50 [3] | Food % (consumption, variation vs Control) [1, 8] | Water % (consumption, variation vs Control) [1, 8] | reduction in hyperglycaemia [4] | reduction of hyperglycaemia ([5]; in combination with sulphonylureas) | reduction of hyperglycaemia ([5]; monotherapy after the failure of diet and physical exercise) | reduction in hyperglycaemia [6]
1 | CC(C)=CCNC(=N)NCCCCN.CS(=O)(=O)O [ST2369, N-(4-aminobutyl)-N′-(γ,γ-dimethylallyl)guanidine methane sulphonate] | 63% | 47% |  |  |  |  |  |  |  |  | 
2 | CC(C)=CCNC(=N)NCCCCCCN.CS(=O)(=O)O [ST2370, N-(γ,γ-dimethylallyl)-N′-(6-aminohexyl)guanidine methane sulphonate] | 81% | 47% | 69 □ % |  |  |  |  |  |  |  | 
3 | CN(C)C(=N)N=C(N)N [Metformin] |  |  |  | 104% | 1000 mg/kg | 119% | 113% | 22% | 25% | 20-30% | 50%

Reference: patent US7368605B2, “Variously substituted derivatives of guanidine, and their use as medicines with anti-diabetes and/or anti-obesity activity” (Sigma-Tau Industrie Farmaceutiche Riunite S.p.A., priority 2002, dated 2008)
